Six compounds from patent publication US9695155B2, “Herbicidal substituted pyrimidinyloxy benzene compounds” (E. I. DU PONT DE NEMOURS AND COMPANY, priority 2013, dated 2017) can be followed below.

The subject of experiment [1] is ragweed. In words: Test A postemergence. The class given is in vivo, Ambrosia elatior. The method in brief:
(§1)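 Greenhouse pot test, loam/sand soil. Formulation: non-phytotoxic solvent mix plus surfactant. Pre: directed spray onto soil after sowing. Post: plants at 1–2 leaf, 2–10 cm. Rated visually vs untreated controls at ~10 d, 0 (no effect) to 100 (complete control).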

For experiment [2], the system named is kochia. In words: Test A postemergence. The class given is in vivo, Kochia scoparia. The method in brief:
as §1

Experiment [3] relates to ragweed. The experiment can be described thus: Test A preemergence. It counts as in vivo, Ambrosia elatior. The method, boiled down: as §1
In experiment [4] the test system is blackgrass. The experiment can be described thus: Test A postemergence. The class given is in vivo, Alopecurus myosuroides. The method in brief: as §1
Experiment [5] relates to galium. In words: Test A postemergence. The class given is in vivo, Galium aparine. The method in brief:
as §1

The mark [6] stands for this setting: 1000 g ai/ha, 0 to 100 scale, 0 no effect, 100 complete control.
[7] abbreviates: 1000 g ai/ha, 0 to 100 scale, 0 no effect, 100 complete control, approx. 10 days.
The mark [8] stands for this setting: 31 g ai/ha, 0 to 100 scale, 0 no effect, 100 complete control.
[9] abbreviates: 125 g ai/ha, 0 to 100 scale where 0 is no effect and 100 is complete control.
Where [10] appears, read: 31 g ai/ha, 0 to 100 scale where 0 is no effect and 100 is complete control, visual, approximately 10 days.
Where [11] appears, read: 500 g ai/ha, 0 to 100 scale where 0 is no effect and 100 is complete control.
Setting [12] is: 125 g ai/ha, 0 to 100 scale, 0 no effect, 100 complete control.

As to `Clc1cnc(Oc2ccccc2-n2cc(C3CC3)nn2)nc1` [Compound 160, 5-chloro-2-[2-(4-cyclopropyl-1H-1,2,3-triazol-1-yl)phenoxy]pyrimidine], the “Plant response rating, Ragweed” value in experiment [1] (setting [6]) is 100. Moreover, the “Plant response rating, Kochia” value in experiment [2] (setting [6]) is given as 100. In addition, the “Ragweed plant response rating” value in experiment [3] (setting [7]) was 100. Further, the “Plant response rating, Blackgrass” value in experiment [4] (setting [6]) is recorded as 100. Also, the “Plant response rating, Galium” value in experiment [5] (setting [6]) is recorded as 100.

Consider `FCc1cccc(Oc2ncc(F)cn2)c1-n1cc(I)cn1` [Compound 152], for which the “Plant response rating, Ragweed” value in experiment [1] (setting [8]) was found to be 20; in experiment [3] (setting [10]), 20; in experiment [3] (setting [9]), 40. Also, in experiment [1] (setting [9]), the “Ragweed plant response rating” value worked out at 20. Further, the “Plant response rating, Kochia” value in experiment [2] (setting [8]) was 20. Also, the “Kochia plant response rating” value in experiment [2] (setting [9]) is 80. The “Plant response rating, Blackgrass” value in experiment [4] (setting [8]) is reported as 50. Further, the “Blackgrass plant response rating” value in experiment [4] (setting [9]) amounted to 90. In experiment [5] (setting [8]), the “Plant response rating, Galium” value is 90. Also, the “Galium plant response rating” value in experiment [5] (setting [9]) is given as 90.

As to `FCc1cn(-c2ccccc2Oc2ncc(Cl)cn2)nn1` [Compound 123], in experiment [1] (setting [6]), the “Plant response rating, Ragweed” value was 100. Besides, in experiment [2] (setting [6]), the “Plant response rating, Kochia” value stood at 100. The “Ragweed plant response rating” value in experiment [3] (setting [7]) worked out at 90. For the same compound, the “Plant response rating, Blackgrass” value in experiment [4] (setting [6]) was found to be 90. Further, in experiment [5] (setting [6]), the “Plant response rating, Galium” value is 100.

With `Clc1cnc(Oc2cccc(Br)c2-n2cc(I)nn2)nc1` [Compound 117], the “Plant response rating, Ragweed” value in experiment [1] (setting [11]) came out at 100; in experiment [3] (setting [9]), 20. In addition, the “Plant response rating, Kochia” value in experiment [2] (setting [9]) and in experiment [2] (setting [11]) was 100 each time. In addition, in experiment [3] (setting [11]), the “Ragweed plant response rating” value was determined as 60. The “Plant response rating, Blackgrass” value in experiment [4] (setting [9]) is reported as 40; in experiment [4] (setting [11]), 80. The “Plant response rating, Galium” value in experiment [5] (setting [9]) and in experiment [5] (setting [11]) was 100 throughout.

Take `N#Cc1cnn(-c2c(Br)cccc2Oc2ncc(Cl)cn2)c1` [Compound 140]: the “Plant response rating, Ragweed” value in experiment [1] (setting [8]) is listed as 60; in experiment [3] (setting [10]), 30; in experiment [3] (setting [9]) it was 70. Further, the “Ragweed plant response rating” value in experiment [1] (setting [9]) turned out to be 70. Moreover, the “Plant response rating, Kochia” value in experiment [2] (setting [8]) is on record as 90. Besides, in experiment [2] (setting [9]), the “Kochia plant response rating” value is 100. The “Plant response rating, Blackgrass” value in experiment [4] (setting [8]) is recorded as 30. For the same compound, the “Blackgrass plant response rating” value in experiment [4] (setting [9]) is reported as 70. The “Plant response rating, Galium” value in experiment [5] (setting [8]) is 80. Besides, the “Galium plant response rating” value in experiment [5] (setting [9]) was found to be 90.

`FCc1cccc(Oc2ncc(Cl)cn2)c1-n1cc(I)cn1` [Compound 245]: the figures for the “Plant response rating, Ragweed” value in experiment [1] (setting [8]), in experiment [1] (setting [12]) and in experiment [3] (setting [10]) were 0, 20 and 0, respectively. For the same compound, the “Plant response rating, Kochia” value in experiment [2] (setting [8]) worked out at 60; in experiment [2] (setting [12]) it was 100. The “Ragweed plant response rating (0 to 100 scale)” value in experiment [3] (125 g ai/ha) is 0. Further, the figures for the “Plant response rating, Blackgrass” value in experiment [4] (setting [8]) and in experiment [4] (setting [12]) were 30 and 70, respectively. The “Plant response rating, Galium” value in experiment [5] (setting [8]) and in experiment [5] (setting [12]) was 100 each time.
